{"source": "ChEMBL document CHEMBL6182913", "about": "“Design of Potent Small-Molecule Stimulator of Interferon Gene Inhibitor and Stimulator of Interferon Gene Mutant-Specific Degrader” (J Med Chem, 2025)", "key": {"[1]": {"molecular_target": "Stimulator of interferon genes protein (Homo sapiens, UniProt Q86WV6, G230A/R293Q/R71H)", "sequence (Q86WV6 whole entry R71H/G230A/R293Q)": "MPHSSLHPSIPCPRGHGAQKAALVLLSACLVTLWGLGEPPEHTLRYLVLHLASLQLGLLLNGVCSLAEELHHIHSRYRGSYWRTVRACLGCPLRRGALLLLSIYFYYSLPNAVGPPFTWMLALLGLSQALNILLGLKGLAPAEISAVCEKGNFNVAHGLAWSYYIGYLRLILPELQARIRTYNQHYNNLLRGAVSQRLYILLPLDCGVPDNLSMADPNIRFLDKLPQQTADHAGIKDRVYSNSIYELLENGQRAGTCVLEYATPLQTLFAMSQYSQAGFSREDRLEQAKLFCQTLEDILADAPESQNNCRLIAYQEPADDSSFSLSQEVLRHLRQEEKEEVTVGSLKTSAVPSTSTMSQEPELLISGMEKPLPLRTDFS", "experiment": "Inhibition of diABZI-induced STING HAQ mutant transfected in human THP1-Blue ISG cells preincubated with compound for 6 hrs followed by diABZI addition and measured after 18 hrs by QUANTI-Blue based microplate reader analysis", "type": "cell-based"}, "[2]": {"molecular_target": "T1, Stimulator of interferon genes protein (Homo sapiens, UniProt Q86WV6)", "experiment": "Inhibition of cGAMP-induced STING R232 mutant transfected human THP-1 cells preincubated with compound for 6 hrs followed by cGAMP addition and measured after 18 hrs by QUANTI-Luc based microplate reader analysis", "type": "cell-based"}, "[3]": {"molecular_target": "T2, Stimulator of interferon genes protein (Mus musculus, UniProt Q3TBT3)", "T2 sequence (Q3TBT3 whole entry)": "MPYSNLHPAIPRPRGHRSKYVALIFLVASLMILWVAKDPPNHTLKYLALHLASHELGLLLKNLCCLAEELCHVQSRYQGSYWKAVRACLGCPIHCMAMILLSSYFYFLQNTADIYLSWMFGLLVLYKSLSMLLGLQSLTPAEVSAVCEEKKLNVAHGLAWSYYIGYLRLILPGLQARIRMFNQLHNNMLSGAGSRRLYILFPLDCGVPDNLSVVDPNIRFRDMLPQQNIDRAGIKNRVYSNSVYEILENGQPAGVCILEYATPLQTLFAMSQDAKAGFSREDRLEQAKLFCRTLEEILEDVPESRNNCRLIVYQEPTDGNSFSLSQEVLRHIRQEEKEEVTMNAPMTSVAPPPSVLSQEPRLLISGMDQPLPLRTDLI", "experiment": "Inhibition of cGAMP-induced mouse STING transfected in human THP-1 cells preincubated with compound for 6 hrs followed by cGAMP addition and measured after 18 hrs by QUANTI-Luc based microplate reader analysis", "type": "cell-based"}, "[4]": {"molecular_target": "T1, Stimulator of interferon genes protein", "experiment": "Inhibition of STING in human THP-1 cells assessed as inhibition of cGAMP-induced IFN-beta release at 0.05 to 0.5 uM pretreated with compound for 6 hrs followed by cGAMP addition and measured after 18 hrs by ELISA", "type": "cell-based", "conditions": "dose 0.05-0.5 µM, time 24.0 hrs"}, "[5]": {"molecular_target": "T3, Stimulator of interferon genes protein (Mus musculus) (UniProt Q3TBT3)", "T3 sequence (whole entry)": "T2 sequence (Q3TBT3 whole entry)", "experiment": "Inhibition of STING in mouse BMDM cells assessed as inhibition of cGAMP-induced IFN-beta release at 0.05 to 0.5 uM pretreated with compound for 6 hrs followed by cGAMP addition and measured after 18 hrs by ELISA", "type": "cell-based", "conditions": "dose 0.05-0.5 µM, time 24.0 hrs"}, "[6]": {"molecular_target": "T1, Stimulator of interferon genes protein", "experiment": "Inhibition of STING activation in human THP1-Blue ISG cells assessed as decrease in cGAMP-induced STING phosphorylation at 0.1 to 1 uM preincubated with compound for 6 hrs followed by cGAMP addition and measured after 3 hrs by Western blotting analysis", "type": "cell-based", "conditions": "dose 0.1-1 µM, time 9.0 hrs"}, "[7]": {"molecular_target": "T1, Stimulator of interferon genes protein", "experiment": "Inhibition of STING activation in human THP1-Blue ISG cells assessed as decrease in cGAMP-induced IRF3 phosphorylation at 0.1 to 1 uM preincubated with compound for 6 hrs followed by cGAMP addition and measured after 3 hrs by Western blotting analysis", "type": "cell-based", "conditions": "dose 0.1-1 µM, time 9.0 hrs"}, "[8]": {"molecular_target": "T1, Stimulator of interferon genes protein", "experiment": "Inhibition of STING activation in human THP1-Blue ISG cells assessed as inhibition of c-GAMP-induced STING dimerization at 0.1 to 1 uM preincubated with compound for 6 hrs followed by cGAMP addition and measured after 3 hrs by Western blotting analysis", "type": "cell-based", "conditions": "dose 0.1-1 µM, time 9.0 hrs"}, "[9]": {"molecular_target": "T1, Stimulator of interferon genes protein", "experiment": "Inhibition of STING activation in human THP1-Blue ISG cells assessed as reduction in STING dimer level at 0.1 to 1 uM incubated for 9 hrs by Western blotting analysis", "type": "cell-based", "conditions": "dose 0.1-1 µM"}, "[10]": {"test_system": "Stimulator of interferon genes protein (Homo sapiens), Q86WV6 [UNDEFINED MUTATION]", "sequence (Q86WV6 whole entry, looked up, change not shown)": "as the sequence (Q86WV6 whole entry R71H/G230A/R293Q) above, with H71R, A230G, Q293R counted along it", "experiment": "Induction of STING M155 mutant degradation in human THP-1 cells at 5 uM incubated for 24 hrs by global proteomics analysis", "type": "cell-based"}, "[11]": {"test_system": "Stimulator of interferon genes protein (Homo sapiens), Q86WV6 [UNDEFINED MUTATION]", "experiment": "Induction of STING M155 mutant degradation in human THP-1 cells at 1 uM incubated for 12 hrs by Western blotting analysis", "type": "cell-based"}, "[12]": {"test_system": "Stimulator of interferon genes protein (Homo sapiens), Q86WV6 [UNDEFINED MUTATION]", "experiment": "Induction of STING M155 mutant degradation in human THP-1 cells at 1 uM incubated for 48 hrs by Western blotting analysis", "type": "cell-based"}, "[13]": {"molecular_target": "T1, Stimulator of interferon genes protein", "experiment": "Induction of STING S154 mutant degradation in human THP-1 cells incubated for 24 hrs by Western blotting analysis", "type": "cell-based"}, "[14]": {"molecular_target": "T1, Stimulator of interferon genes protein", "experiment": "Induction of STING M155 mutant degradation in human THP-1 cells incubated for 24 hrs by Western blotting analysis", "type": "cell-based"}, "[15]": {"test_system": "Stimulator of interferon genes protein (Homo sapiens), Q86WV6 [UNDEFINED MUTATION]", "experiment": "Induction of STING M155 mutant degradation in human THP-1 cells by measuring maximum efficacy at 0.01 to 10 uM incubated for 24 hrs by Western blotting analysis relative to control", "type": "cell-based", "conditions": "dose 0.01-10 µM"}, "[16]": {"test_system": "Stimulator of interferon genes protein (Homo sapiens), Q86WV6 [UNDEFINED MUTATION]", "experiment": "Induction of STING M155 mutant degradation in human THP-1 cells at 1 uM preincubated with MG132 for 2 hrs followed by compound addition and measured after 22 hrs by Western blotting analysis", "type": "cell-based"}, "[17]": {"test_system": "Stimulator of interferon genes protein (Homo sapiens), Q86WV6 [UNDEFINED MUTATION]", "experiment": "Induction of STING M155 mutant degradation in human THP-1 cells at 0.5 uM preincubated with rapamycin for 2 hrs followed by compound addition and measured after 14 hrs by Western blotting analysis", "type": "cell-based"}, "[18]": {"experiment": "Metabolic stability in mouse liver microsomes assessed as half life at 10 uM in presence of NADPH by LC-MS/MS analysis", "type": "ADME, Microsome"}, "[19]": {"experiment": "Metabolic stability in mouse plasma assessed as half life in presence of NADPH by LC-MS/MS analysis", "type": "ADME, cell-free"}, "[20]": {"experiment": "Metabolic stability in human plasma assessed as half life in presence of NADPH by LC-MS/MS analysis", "type": "ADME, cell-free"}, "[21]": {"molecular_target": "T3, Stimulator of interferon genes protein (Mus musculus)", "experiment": "In vivo inhibition of cGAMP-induced STING activation in autoimmune disease female C57BL/6 mouse model assessed as decrease in cGAMP-induced serum INF-beta level at 10 mg/kg, sc pretreated with compound for 2 hrs followed by cGAMP addition and measured after 3 hrs by ELISA", "type": "functional, organism-based"}, "[22]": {"experiment": "Half life in mouse at 20 mg/kg, po by LC-MS/MS analysis", "type": "ADME, organism-based", "conditions": "in vivo"}, "[23]": {"experiment": "Apparent oral clearance in mouse at 20 mg/kg, po by LC-MS/MS analysis", "type": "ADME, organism-based", "conditions": "in vivo"}, "[24]": {"experiment": "AUC in mouse at 20 mg/kg, po by LC-MS/MS analysis", "type": "ADME, organism-based", "conditions": "in vivo"}, "[25]": {"molecular_target": "T3, Stimulator of interferon genes protein (Mus musculus)", "experiment": "In vivo inhibition of cGAMP-induced STING activation in autoimmune disease female C57BL/6 mouse model assessed as decrease in cGAMP-induced serum CXCL-10 level at 10 mg/kg, sc pretreated with compound for 2 hrs followed by cGAMP addition and measured after 3 hrs by ELISA", "type": "functional, organism-based"}, "[26]": {"molecular_target": "T3, Stimulator of interferon genes protein (Mus musculus)", "experiment": "In vivo inhibition of cGAMP-induced STING activation in autoimmune disease female C57BL/6 mouse model assessed as decrease in cGAMP-induced serum INF-beta level at 20 mg/kg, po pretreated with compound for 2 hrs followed by cGAMP addition and measured after 3 hrs by ELISA", "type": "functional, organism-based"}, "[27]": {"molecular_target": "T3, Stimulator of interferon genes protein (Mus musculus)", "experiment": "In vivo inhibition of cGAMP-induced STING activation in autoimmune disease female C57BL/6 mouse model assessed as decrease in cGAMP-induced serum CXCL-10 level at 20 mg/kg, po pretreated with compound for 2 hrs followed by cGAMP addition and measured after 3 hrs by ELISA", "type": "functional, organism-based"}}, "note": "Calls of active or inactive are those of the source. No cut-off for these calls is given here."}
{"smiles": "COc1ccc2c(c1)C(=O)N(c1ccc(C(C)(C)C)c(F)c1)C(c1cc3cc(-c4ccc(C(=O)Nc5ccc(O)c(NS(C)(=O)=O)c5)cc4)ccc3o1)C2C(N)=O", "note": "(configuration not stated)", "values": [{"measurement": "IC50", "setting": "[1]", "value": 0.12, "unit": "µM"}, {"measurement": "IC50", "setting": "[2]", "value": 0.03, "unit": "µM"}, {"measurement": "IC50", "setting": "[3]", "value": 0.03, "unit": "µM"}, {"measurement": "inhibition", "setting": "[4]", "value": "Active"}, {"measurement": "inhibition", "setting": "[5]", "value": "Active"}, {"measurement": "inhibition", "setting": "[6]", "value": "Active"}, {"measurement": "inhibition", "setting": "[7]", "value": "Active"}, {"measurement": "inhibition", "setting": "[8]", "value": "Active"}, {"measurement": "inhibition", "setting": "[9]", "value": "Active"}, {"measurement": "Activity", "setting": "[10]", "value": "Active"}, {"measurement": "Activity", "setting": "[11]", "value": "Active"}, {"measurement": "Activity", "setting": "[12]", "value": "Active; Compound Showed Maximum Degradation"}, {"measurement": "DC50", "setting": "[13]", "value": 0.31, "unit": "µM"}, {"measurement": "DC50", "setting": "[14]", "value": 0.76, "unit": "µM"}, {"measurement": "Emax", "setting": "[15]", "value": 92, "unit": "%"}, {"measurement": "Activity", "setting": "[16]", "value": "Active"}, {"measurement": "Activity", "setting": "[17]", "value": "Active"}, {"measurement": "half-life at 10 µM", "setting": "[18]", "value": "> 1", "unit": "h"}, {"measurement": "half-life", "setting": "[19]", "value": "> 4", "unit": "h"}, {"measurement": "half-life", "setting": "[20]", "value": "> 4", "unit": "h"}, {"measurement": "inhibition", "setting": "[21]", "value": "Active"}, {"measurement": "half-life", "setting": "[22]", "value": 3.3, "unit": "h"}, {"measurement": "CL/F", "setting": "[23]", "value": 9.76, "unit": "L/h/kg"}, {"measurement": "AUC", "setting": "[24]", "value": 2.02, "unit": "µg·h/mL"}, {"measurement": "inhibition", "setting": "[25]", "value": "Active"}, {"measurement": "inhibition", "setting": "[26]", "value": "Active"}, {"measurement": "inhibition", "setting": "[27]", "value": "Active"}]}
